Reference: patent US6794396B2, “Substituted pyridines useful for inhibiting cholesteryl ester transfer protein activity” (Pharmacia Corporation, priority 1998, dated 2004)

The compounds below were run against T1, CETP (Homo sapiens, UniProt P11597) (assay: CETP activity in vitro: transfer of [3H]CE from HDL donor to LDL acceptor particles). Settings: 50% inhibition of [3H]CE transfer from HDL to LDL, 2 hours at 37° C.; read-out: IC50(μm).
T1 construct: made in house; host or cells: CHO cells (serum-free conditioned medium)
T1 sequence (P11597 18-493): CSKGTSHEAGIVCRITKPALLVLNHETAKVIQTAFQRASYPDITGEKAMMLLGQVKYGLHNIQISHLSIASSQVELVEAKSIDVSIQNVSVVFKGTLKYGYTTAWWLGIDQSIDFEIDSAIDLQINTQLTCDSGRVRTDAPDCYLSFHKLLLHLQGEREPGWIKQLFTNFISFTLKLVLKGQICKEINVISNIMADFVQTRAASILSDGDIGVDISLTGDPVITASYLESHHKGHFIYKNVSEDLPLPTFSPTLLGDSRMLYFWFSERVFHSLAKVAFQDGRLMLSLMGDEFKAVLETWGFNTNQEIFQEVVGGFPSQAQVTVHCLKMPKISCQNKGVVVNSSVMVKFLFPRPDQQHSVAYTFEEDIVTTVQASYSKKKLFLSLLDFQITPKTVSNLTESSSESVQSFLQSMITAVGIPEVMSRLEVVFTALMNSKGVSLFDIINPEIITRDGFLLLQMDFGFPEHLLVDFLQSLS
Format: biochemical
Description: The ability of compounds to inhibit CETP were assessed using an in vitro assay that measured the rate of transfer of radiolabeled cholesteryl ester ([^3H]CE) from HDL donor particles to LDL acceptor particles. Details of the assay are provided by Glenn et al. (“Quantification of Cholesteryl Ester Transfer Protein (CETP): A) CETP Activity and B) Immunochemical Assay of CETP Protein,” Meth. Enzymol., Glenn and Melton (Meth. Enzymol., 263, 339-351 (1996), which is incorporated herein by reference). CETP was obtained from the serum-free conditioned medium of CHO cells transfected with a cDNA for CETP (Wang, S. et al. J. Biol Chem. 267, 17487-17490 (1992), which is incorporated herein by reference).
To measure CETP activity, [^3H]CE-labeled HDL, LDL, CETP and assay buffer (50 mM tris(hydroxymethyl)amino-methane, pH 7.4; 150 mM sodium chloride; 2 mM ethylenediamine-tetraacetic acid; 1% bovine serum albumin) were incubated in a volume of 200 μl, for 2 hours at 37° C. in 96 well plates. LDL was differentially precipitated by the addition of 50 μl of 1% (w/v) dextran sulfate/0.5 M magnesium chloride, mixed by vortex, and incubated at room temperature for 10 minutes The solution (200μl) was transferred to a filter plate (Millipore). After filtration, the radioactivity present in the precipitated LDL was measured by liquid scintillation counting.
This value was defined as the IC50.

Compound | IC50 [µM]
COC(=O)c1c(C(F)F)nc(C(F)(F)F)c(C(=O)Oc2ccc(C(C)(C)C)cc2C(C)(C)C)c1CC(C)C [Compound 168, 3-Methyl 5-(2,4-Di-t-butylphenyl) 2-(Difluoromethyl)-4-(2-methylpropyl)-6-(trifluoromethyl)-3,5-pyridicarboxylate] | 60
COC(=O)c1c(C(F)F)nc(C(F)(F)F)c(C(=O)Oc2ccc(C(C)C)cc2Cc2ccc(F)cc2)c1CC(C)C [Compound 170, 3-Methyl 5-[2-(4-Fluorobenzyl)-4-isopropylphenyl]2-(Difluoromethyl)-4-(2-methylpropyl)-6-(trifluoromethyl)-3,5-pyridicarboxylate] | 40

Same assay, conditions: @ 100 μm; footnotes A and B of Table 6

Compound | CE transferred
COC(=O)c1c(C(F)F)nc(C(F)(F)F)c(CSc2nccn2C)c1CC(C)C [Compound 188, Methyl 5-[(1-Methylimidazol-2-yl)thiomethyl]-2-(difluoromethyl)-4-(2-methylpropyl)-6-(trifluoromethyl)-3-pyridinecarboxylate] | ^A90% CE transferred @ 100 μm.
COC(=O)c1c(C(F)F)nc(C(F)(F)F)c(CSc2nnnn2C)c1CC(C)C [Compound 189, Methyl 5-[(1-Methyltetrazol-5-yl)thiomethyl]-2-(difluoromethyl)-4-(2-methylpropyl)-6-(trifluoromethyl)-3-pyridinecarboxylate] | ^A90% CE transferred @ 100 μm.

Same assay, conditions: IC50(μm), 50% inhibition of [3H]CE transfer from HDL to LDL, 2 hours at 37° C.

Compound | IC50 [µM]
COC(=O)c1c(C(F)F)nc(C(F)(F)F)c(C(=O)Oc2ccccc2C(C)C)c1CC(C)C [Compound 175, 3-Methyl 5-(2-Isopropylphenyl) 2-(Difluoromethyl)-4-(2-methylpropyl)-6-(trifluoromethyl)-3,5-pyridicarboxylate] | > 100

Same assay, conditions: IC50, Table 5, compounds of formula T-5

Compound | IC50 [µM]
COC(=O)c1c(C(F)F)nc(C(F)(F)F)c(SC(=O)c2c(C(F)(F)F)nc(C(F)F)c(C(=O)OC)c2CC(C)C)c1CC(C)C [Compound 183, Methyl 5-{[2-(Difluoromethyl)-4-(2-methylpropyl)-3-(methoxycarbonyl)-6-(trifluoromethyl)-5-pyridyl]carbonylthio}-2-(difluoromethyl)-4-(2-methylpropyl)-6-(trifluoromethyl)-3-pyridinecarboxylate] | 50

Same assay, conditions: IC50, Table 6, compounds of formula T-6

Compound | IC50 [µM]
COC(=O)c1c(C(F)F)nc(C(F)(F)F)c(CSc2ccc(Cl)cc2)c1CC(C)C [Compound 185, Methyl 5-[(4-Chlorophenyl)thiomethyl]-2-(difluoromethyl)-4-(2-methylpropyl)-6-(trifluoromethyl)-3-pyridinecarboxylate] | 10
COC(=O)c1c(C(F)F)nc(C(F)(F)F)c(CSc2nccn2C)c1CC(C)C [Compound 188, Methyl 5-[(1-Methylimidazol-2-yl)thiomethyl]-2-(difluoromethyl)-4-(2-methylpropyl)-6-(trifluoromethyl)-3-pyridinecarboxylate] | > 100
COC(=O)c1c(C(F)F)nc(C(F)(F)F)c(CSc2ccc(OC(F)(F)F)cc2)c1CC(C)C [Compound 191] | 10
COC(=O)c1c(C(F)F)nc(C(F)(F)F)c(CSc2ccc([N+](=O)[O-])cc2)c1CC(C)C [Compound 198, Methyl 5-[(4-Nitrophenyl)thiomethyl]-2-(difluoromethyl)-4-(2-methylpropyl)-6-(trifluoromethyl)-3-pyridinecarboxylate] | 7

Same assay, conditions: Table 5, compounds of formula T-5; read-out: IC50

Compound | IC50 [µM]
COC(=O)c1c(C(F)F)nc(C(F)(F)F)c(CSc2c(C(F)(F)F)nc(C(F)F)c(C(=O)OC)c2CC(C)C)c1CC(C)C [Compound 182, Methyl 5-{[3-(Carbomethoxy)-2-(difluoromethyl)-4-isobutyl-6-(trifluoromethyl)-5-pyridyl]thiomethyl}-2-(difluoromethyl)-4-isobutyl-6-(trifluoromethyl)-3-pyridinecarboxylate] | 19

Same assay, conditions: Table 6, compounds of formula T-6; read-out: IC50

Compound | IC50 [µM]
COC(=O)c1c(C(F)F)nc(C(F)(F)F)c(CSc2cccc(Br)c2)c1CC(C)C [Compound 184, Methyl 5-[(3-Bromophenyl)thiomethyl]-2-(difluoromethyl)-4-(2-methylpropyl)-6-(trifluoromethyl)-3-pyridinecarboxylate] | 30
COC(=O)c1c(C(F)F)nc(C(F)(F)F)c(CSc2c(F)c(F)cc(F)c2F)c1CC(C)C [Compound 186, Methyl 5-[(2,3,5,6-Tetrafluorophenyl)thiomethyl]-2-(difluoromethyl)-4-(2-methylpropyl)-6-(trifluoromethyl)-3-pyridinecarboxylate] | 50
COC(=O)c1c(C(F)F)nc(C(F)(F)F)c(CSc2cc(C(C)(C)C)cc(C(C)(C)C)c2)c1CC(C)C [Compound 187, Methyl 5-[(3,5-Di-t-butylphenyl)thiomethyl]-2-(difluoromethyl)-4-(2-methylpropyl)-6-(trifluoromethyl)-3-pyridinecarboxylate] | 40
COC(=O)c1c(C(F)F)nc(C(F)(F)F)c(CSc2nnnn2C)c1CC(C)C [Compound 189, Methyl 5-[(1-Methyltetrazol-5-yl)thiomethyl]-2-(difluoromethyl)-4-(2-methylpropyl)-6-(trifluoromethyl)-3-pyridinecarboxylate] | > 100
COC(=O)c1c(C(F)F)nc(C(F)(F)F)c(CSc2nc3ccc([N+](=O)[O-])cc3[nH]2)c1CC(C)C [Compound 190, Methyl 5-[(5-Nitrobenzimidazol-2-yl)thiomethyl]-2-(difluoromethyl)-4-(2-methylpropyl)-6-(trifluoromethyl)-3-pyridinecarboxylate] | 25
COC(=O)c1c(C(F)F)nc(C(F)(F)F)c(CSc2ccc3ccccc3n2)c1CC(C)C [Compound 192, Methyl 5-[(Quinolin-2-yl)thiomethyl]-2-(difluoromethyl)-4-(2-methylpropyl)-6-(trifluoromethyl)-3-pyridinecarboxylate] | 40
COC(=O)c1c(C(F)F)nc(C(F)(F)F)c(CSc2ccc(Br)cc2)c1CC(C)C [Compound 193, Methyl 5-[(4-Bromophenyl)thiomethyl]-2-(difluoromethyl)-4-(2-methylpropyl)-6-(trifluoromethyl) -3-pyridinecarboxylate] | 20
COC(=O)c1c(C(F)F)nc(C(F)(F)F)c(CSc2c(F)c(F)c(F)c(F)c2F)c1CC(C)C [Compound 194, Methyl 5-[(Pentafluorophenyl)thiomethyl]-2-(difluoromethyl)-4-(2-methylpropyl)-6-(trifluoromethyl)-3-pyridinecarboxylate] | 30
COC(=O)c1c(C(F)F)nc(C(F)(F)F)c(CSc2cc(Cl)ccc2Cl)c1CC(C)C [Compound 195, Methyl 5-[(2,5-Dichlorophenyl)thiomethyl]-2-(difluoromethyl)-4-(2-methylpropyl)-6-(trifluoromethyl)-3-pyridinecarboxylate] | 50
COC(=O)c1c(C(F)F)nc(C(F)(F)F)c(CSc2c(F)c(F)c(C(F)(F)F)c(F)c2F)c1CC(C)C [Compound 196, Methyl 5-[(2,3,5,6-Tetrafluoro-4-(trifluoromethyl)phenyl)thiomethyl]-2-(difluoromethyl)-4-(2-methylpropyl)-6-(trifluoromethyl)-3-pyridinecarboxylate] | 20
COC(=O)c1c(C(F)F)nc(C(F)(F)F)c(CSc2nccc(C)n2)c1CC(C)C [Compound 197, Methyl 5-[(4-Methylpyrimidin-2-yl)thiomethyl]-2-(difluoromethyl)-4-(2-methylpropyl)-6-(trifluoromethyl)-3-pyridinecarboxylate] | 60
COC(=O)c1c(C(F)F)nc(C(F)(F)F)c(CSc2ccc(OC)cc2)c1CC(C)C [Compound 199, Methyl 5-[(4-Methoxyphenyl)thiomethyl]-2-(difluoromethyl)-4-(2-methylpropyl)-6-(trifluoromethyl)-3-pyridinecarboxylate] | 20
COC(=O)c1c(C(F)F)nc(C(F)(F)F)c(CSc2ccccc2Cl)c1CC(C)C [Compound 200, Methyl 5-[(2-Chlorophenyl)thiomethyl]-2-(difluoromethyl)-4-(2-methylpropyl)-6-(trifluoromethyl)-3-pyridinecarboxylate] | 40
